The subject of test [1] is HIV-1 reverse transcription products. In words: Taqman QPCR of HIV-1 reverse transcription products in infected CD4 T-cells. The format is cell-based, human. Conditions: 16 hours after infection with NL4-3, versus untreated cells. Here is the method:
Fresh HLACs were washed once with PBS and resuspended with PBS containing 5 mM EDTA and 2% fetal bovine serum. CD4 T-cells were isolated from HLACs by positive selection on CD4 microbeads (Miltenyi) and cultured overnight in 96-well U-bottomed plates (1×10^6 cells/well) as described above, and AZT was added to the indicated cell samples. Next day, the rest of the drugs were added to the indicated cell samples at concentrations as described above. Cells were chilled on ice for 15 min and DNAse-treated (Ambion, 60 U/ml, 1 hour, 37° C.) NL4-3 or Δvif NL4-3 virions (200 ng/well) were added. After a 1 hour incubation with virions on ice, cells were spinoculated at 1200 g for 2 hours at 4° C., incubated at 37° C. for 2 hours, washed three times with cold PBS, and resuspended in fresh RPMI with the indicated drugs. Eight or 16 hours after spinoculation, cell pellets were frozen at −80° C. Total DNA was purified from each cell pellet with a DNAse kit (Qiagen). Primer and probe sequences used to detect reverse transcription products are provided herein. QPCR reactions were performed in triplicates in TaqMan universal PCR master mix using each primer at 3.75 μM and probe at 2.5 μM. After 15 minutes at 95° C., reactions underwent 50 cycles of 15 sec at 95° C. followed by 1 min at 60° C. in an ABI Prism 7900HT (Applied Biosystems).
Next the status of HIV-1 reverse transcription in tonsillar CD4 T-cells after infection was examined. […] Taqman-based quantitative real-time PCR (QPCR) was used to quantify the synthesis of reverse transcription products in isolated CD4 T-cells from HLAC 16 hours after infection with NL4-3. Specific QPCR primers and probes were designed (Table 1) to monitor sequential steps in reverse transcription including generation of strong-stop DNA, first template exchange (Nef), and DNA strand elongation (Env) (FIG. 10A)
In general terms: Quantitative PCR measures a nucleic acid by following its amplification.

In another test the test system is ISRE-GFP H35 cells. In words: ISRE-GFP H35 reporter cells. The class given is cell-based, rat. The settings on record: AZT 5 μM, efavirenz 100 nM, raltegravir 30 μM. Here is the method: Hepatocyte-derived reporter ISRE-GFP H35 cells were maintained as previously described (King et al., 2007, Lab Chip 7:77-85; Patel et al., 2009, Proc Natl Acad Sci USA 106:12867-12872). For microscopic imaging, ISRE-GFP reporter H35 cells were cultured on 35 mm glass bottom culture dishes (MatTeck) and were treated with AZT (5 μM), Efavirenz (100 nM), or Raltegravir (30 μM) 12 hours before infection. Cells were then infected with 2 μg/ml of replication competent VSV-G pseudotyped NL4-3. After 48 hours incubation at 37° C., cells were fixed in 2% paraformaldehyde at 25° C. for 1 hour, washed with PBS and stained with 10 μg/ml Hoechst 33342 (Invitrogen) and 1 μg/ml 7-AAD (eBioscience) for 15 min at 25° C. Cells were washed 3 times with PBS and were analyzed with an Axio observer Z1 microscope (Zeiss) equipped with an EC Plan NEOFLUAR 10×/0.3 PHM27 objective, filter sets 38HE, 45, and 49, and an Axiocam MRM REV 3.

In test [2] the test system is HLAC CD4 T-cells. Kind of test: HLAC cells overlaid on virus-producing 293T-cells, CD4 T-cell depletion. The settings on record: 24 hours co-culture. The format is cell-based, human. The protocol:
HLACs were infected with viruses derived from the indicated HIV proviral clones in the presence of the indicated concentrations of AZT or in the absence of drugs. Six days after infection the amount of p24^gag in the medium was determined by FLAQ assay. The amount of p24^gag in the medium after infection wash (day 0) was defined as 0%. […] Viral incorporation of endogenous A3G was measured by immunoblot analysis of purified NL4-3 and Δvif NL4-3 virions harvested from 1 ml of supernatant from infected HLACs. Doses reflect 1:10 dilutions. […] Resting or activated CFSE-labeled cells were co-cultured with cells infected with WT or Δvif NL4-3 in the presence or absence of the following drugs, AZT (5 μM), AMD3100 (250 nM), the NNRTIs Efavirenz (100 nM), and Nevirapine (1 μM), or the integration inhibitors Raltegravir (30 μM) and 118-D-24 (60 μM). Data are representative of four independent experiments performed with cells from four different donors. (E) A method to assess indirect killing in HLAC with non-infectious HIV-1 clones. Fresh human tonsil is processed into HLAC and cells are cultured in suspension. At the same time 293T-cells are transfected with 1 μg HIV-1 DNA in a 24-well plate. After 12 hours, 293T-cells are washed and overlayed with 3×10^6 HLAC cells in RPMI in the presence of the indicated drugs. Virus-producing 293T-cells directly interact with target overlaying HLAC cells. After 24 hours, the HLAC suspensions are collected from wells and analyzed by flow cytometry. […] HLAC were cultured with the indicated drugs 3 hours before co-culture with 293T-cells. Percentages are normalized to the number of viable CD4 T-cells in HLAC overlaying non-transfected 293T-cells in the presence of AZT, as depicted by (*). Error bars represent standard error of the mean of three experiments performed using cells from three different HLAC donors.

Test [3] concerns HLAC CD4 T-cells. In words: Spinoculation of HLAC with HIV-1, CD4 T-cell depletion. The format is cell-based, human. The settings on record: ≧2 μg p24gag/200 μl, within 12 hours. Here is the method: (A) The spinoculation procedure. (B) Flow cytometry of viable CD4 versus CD8-T-cells in HLAC three days after spinoculation in the presence of the indicated drugs. Data represent live-gated cells, based on the forward-scatter versus side-scatter profile of the complete culture. Of note, apoptotic cells were included in the analysis of caspases activity and cytokine expression (FIG. 10E, F). Drugs concentrations: AZT 5 μM; Efavirenz 100 nM; AMD3100 250 nM; T20 10 μg/ml. The data are representative results of six independent experiments with six different donors. […] (C) Highly permissive SupT1 CD4 T leukemic cells were infected with NL4-3 and cultivated for 3 days to allow substantial infection but not syncytia formation. […] After 2.5 days of additional culture, the extent of syncytia formation in each sample was evaluated by light microscopy. […] Results are representative of three independent experiments.
Fresh HLAC cells are cultured overnight in a V-bottom 96-well plate (1×10^6 cells/well) in the presence of drugs and then chilled on ice. […] The cold temperature allows virion attachment but prevents virion fusion. HIV-coated cells are then tightly packed into a pellet by high-speed centrifugation (1200 g) for 2 hours at 4° C. This step presses the virus between cell membranes, exerting a uniform and consistent attachment. […]

Experimental findings from patent publication US9352010B2, “Treatment of HIV-1 infection and AIDS” (The J. David Gladstone Institutes, priority 2011, dated 2016) are described below.

Take `Cc1cn([C@H]2C[C@H](N=[N+]=[N-])[C@@H](CO)O2)c(=O)[nH]c1=O` [AZT]: the “reverse transcription products corresponding to strong-stop DNA” value in test [1] is reported as “similar”. Further, the “GFP expression and cell death induced by VSV-G pseudotyped HIV-1 virions” value in the test on ISRE-GFP H35 cells is “induced GFP expression and cell death in the presence or absence of AZT”. Also, the “loss of HLAC CD4 T-cells over NL4-3-transfected 293T-cells” value (“loss … over NL4-3-transfected 293T-cells” below) with HLAC CD4 T-cells [2] is “occurred both in the presence and absence of AZT”.
As for `O=C1Nc2ccc(Cl)cc2[C@@](C#CC2CC2)(C(F)(F)F)O1` [efavirenz], the “CD4 T-cell killing after spinoculation with high doses of HIV-1” value in the test with HLAC CD4 T-cells [3] is given as “is not prevented”. For the same molecule, the “GFP expression and cell death induced by VSV-G pseudotyped HIV-1 virions” value in the test on ISRE-GFP H35 cells was “blocked”. Besides, the “loss … over NL4-3-transfected 293T-cells” value with HLAC CD4 T-cells [2] was “completely blocked”.
Consider `c1cc(CN2CCCNCCNCCCNCC2)ccc1CN1CCCNCCNCCCNCC1` [AMD3100], for which the “reverse transcription products corresponding to strong-stop DNA” value in test [1] was “greatly reduced”. In the test on HLAC CD4 T-cells [2], the “loss … over NL4-3-transfected 293T-cells” value is given as “completely blocked”.
enfuvirtide: the “CD4 T-cell killing after spinoculation with high doses of HIV-1” value with HLAC CD4 T-cells [3] is “prevented CD4 T-cell killing”.
